Data set [1] relates to basal cell carcinoma. Put plainly: Topical theobromine alone on basal cell carcinoma in person (Example 8, comparative). The data set is classed as in vivo, human. Conditions: 0.5% theobromine solution once daily for 1 month. As to the method:
In another example a person with a clinical diagnosis of basal cell carcinoma was treated with 0.5% percent theobromine solution. In application, 50-100 μL (1-2 drops) of theobromine solution was applied in a thin water-based layer over the whole treated area evenly (up to 50 cm 2 area in total). Theobromine was applied once daily for 1 months. The patient was examined by a dermatologist before the treatment and one week after completion of the treatment.

Data set [2] has as its system actinic keratoses. The data set is described as follows: Topical theobromine alone on actinic keratoses on scalp of person (Example 9, comparative). Format: in vivo, human. As to the method:
In another experiment a person with an area of actinic keratoses on their scalp was treated with 0.5% theobromine solution once daily for 4 weeks. The theobromine solution was prepared in 25% ethanol and 50% glycerol, adjusted to pH 8 via 100 mM sodium hydrogen carbonate solution. Theobromine solution was stored at room temperature in the dark. In application, 50-100 μL (1-2 drops) of theobromine solution was applied first in a thin water-based layer over the whole treated area evenly.
(§1) The patient reported no discomfort with treatment: pain and soreness were reported by the patient to be 0/10 in areas treated with theobromine treatment.

Data set [3] concerns ATR. The settings on record: role: inhibitor; physiologically and clinically achievable conditions; cited from earlier work.
The conditions of data set [4]: cited from earlier work.
Data set [5] concerns AK lesion. Put plainly: Split-scalp treatment of actinic keratoses with 5FU plus methylxanthine versus 5FU alone (Example 3). The data set is classed as in vivo, human. The settings on record: for AK lesion clearance / efficacy versus 5FU alone control: 0.5% w/v methylxanthine in combination with Efudix 5% 5FU. As for the experimental part:
P values below 0.05, denoting significance, are as marked.
Results are shown per individual patient.
All patients were treated solely on the scalp and were only treated on half of the scalp with the test compound and 5FU, while the other half was used as control, treated with 5FU alone. Separation between combination and 5FU only control was mostly done medially, with one patient having and anterior/posterior treatment setup. As in Example 2, the patients self-administered the test compound on the test region 10-20 minutes before applying the Efudix® cream containing 5% w/v 5FU. In application, 50-100 μL (1-2 drops) of the test compound solution was applied first in a thin water-based layer over the whole treated area evenly. 5-FU was applied 10-20 minutes later, via finger application, as per best practice and manufacturer's instructions. Patients applied the regimen at regular intervals, once daily. One fingertip unit (~0.5 g) was used for an equivalent of half the scalp area.

In data set [6] the test system is actinic keratoses. Put plainly: Topical theobromine alone on actinic keratoses on nose of person (Example 10, comparative). Format: in vivo, human. As for the experimental part: In another experiment a person with an area of actinic keratoses on their nose was treated with 0.5% theobromine solution once daily for 4 weeks. The theobromine solution was prepared in 25% ethanol and 50% glycerol, adjusted to pH 8 via 100 mM sodium hydrogen carbonate solution. Theobromine solution was stored at room temperature in the dark. In application, 50-100 μL (1-2 drops) of theobromine solution was applied first in a thin water-based layer over the whole treated area evenly.
as §1

The subject of data set [7] is PARP. The settings on record: role: inhibitor; physiologically and clinically achievable conditions; cited from earlier work.
The test system of data set [8] is basal cell carcinoma. The data set is described as follows: Topical theobromine alone on basal cell carcinoma in person (Example 7, comparative). Format: in vivo, human. The settings on record: 0.5% theobromine solution once daily for 2 months. As to the method:
In another example a person with a clinical diagnosis of basal cell carcinoma was treated with 0.5% percent theobromine solution. In application, 50-100 μL (1-2 drops) of theobromine solution was applied in a thin water-based layer over the whole treated area evenly (up to 50 cm 2 area in total). Theobromine was applied once daily for 2 months. At the end of the treatment, they were examined by a dermatologist.

Data set [9] deals with ATM. The settings on record: role: inhibitor; physiologically and clinically achievable conditions; cited from earlier work.
The conditions of data set [10]: topical; percent of patients; cited from earlier work.
Data set [11] deals with actinic keratoses. The settings on record: topical; cited from earlier work.
The subject of data set [12] is basal cell carcinomas. The settings on record: topical; cited from earlier work.
The subject of data set [13] is basal cell carcinomas. Put plainly: Topical treatment of basal cell carcinomas in person (Example 4). Format: in vivo, human. Conditions: one month after completing 1 month once daily treatment; 5% 5-FU with (2 lesions) or without (1 lesion) 0.5% theobromine. As to the method:
In another example, a person with multiple basal cell carcinomas was treated with: 5% 5-fluorouracil (5-FU) cream alone (1 lesion, back, clinical diagnosis) or a combination of 5-FU cream and theobromine solution (2 lesions-biopsy confirmed basal cell carcinoma, right leg and basal cell carcinoma, left forearm, clinical diagnosis). The treatment was continued once daily for 1 month and 0.5% percent theobromine solution. In application, 50-100 μL (1-2 drops) of theobromine solution was applied in a thin water-based layer over the whole treated area evenly (up to 50 cm2 area in total). 5-FU was applied via finger application, as per best practice and manufacturer's instructions. One finger tip unit (0.5 g) was used to cover 1 lesion. 5FU was applied 30 min after theobromine. One month after completing treatment the patient was examined by a dermatologist. The lesions treated with 5FU and theobromine resolved and the lesion treated with 5FU persisted.

For data set [14], the system named is thymidylate synthase. The settings on record: role: inhibitor; cited from earlier work.
Data set [15] has as its system actinic keratoses. Put plainly: Split-area topical treatment of actinic keratoses on scalp of person (Example 1). The data set is classed as in vivo, human. As to the method: In one experiment a person with an actinic keratoses region on their scalp was treated with 5% 5-fluorouracil cream once daily for 30 days (as marked in FIG. 1, posterior region). Another area of actinic keratoses on their scalp (As marked on FIG. 1, anterior region) was treated with both 5% 5-fluorouracil cream once daily and 0.5% theobromine solution once daily for 30 days. The 5% 5-FU cream applied was a medically available cream from Mylan, commercially known as Efudix® cream. The theobromine solution was prepared in 25% ethanol and 50% glycerol, adjusted to pH 8 via 100 mM sodium hydrogen carbonate solution. Efudix® was stored as per manufacturer's instructions, at room temperature, and theobromine solution at room temperature in the dark. In application, 50-100 μL (1-2 drops) of theobromine solution was applied first in a thin water-based layer over the whole treated area evenly. 5-FU was applied 10-20 minutes later, via finger application, as per best practice and manufacturer's instructions. One fingertip unit (~0.5 g) was used for an equivalent of half the forehead area.
(§2) Redness and inflammation were assessed by the responsible physician.

Data set [16] relates to actinic keratoses. The data set is described as follows: Split-scalp topical treatment of actinic keratoses in person (Example 2). Format: in vivo, human. As for the experimental part:
Quantification is as described for Patient #2 in Table 1;
In another experiment a person with an actinic keratoses on their scalp was treated with 5% 5-fluorouracil cream 4× per week for 4 weeks (15 lesions, as marked in FIG. 2, left side of scalp). Another area of actinic keratoses on their scalp (16 lesions, as marked on FIG. 2, right side of scalp) was treated with both 5% 5-fluorouracil cream 4× per week and 0.5% theobromine solution 4× per week for 4 weeks. The 5% 5-FU cream applied was a medically available cream from Mylan, commercially known as Efudix® cream. The theobromine solution was prepared in 25% ethanol and 50% glycerol, adjusted to pH 8 via 100 mM sodium hydrogen carbonate solution. Efudix® was stored as per manufacturer's instructions, at room temperature, and theobromine solution at room temperature in the dark. In application, 50-100 μL (1-2 drops) of theobromine solution was applied first in a thin water-based layer over the whole treated area evenly. 5-FU was applied 10-20 minutes later, via finger application, as per best practice and manufacturer's instructions. One fingertip unit (~0.5 g) was used for an equivalent of half the forehead area.
as §2

Setting [17] is: 0.5% theobromine solution once daily for 4 weeks.
[18] abbreviates: four weeks after completion of treatment.

The values that follow come from patent US20260345620A1, “IMPROVEMENTS IN OR RELATING TO COMPOSITIONS FOR TREATMENT OF LESIONS” (SYDERMA LTD, priority 2023, published 2026).

For `Cn1cnc2c1c(=O)[nH]c(=O)n2C` [theobromine], in [1], the “change in lesion size or appearance” value is “no change in the lesion size or appearance” and the inflammation or pain entry is “No evidence of inflammation or pain”. In data set [1] (one week after completion), the “basal cell carcinoma outcome” value is on record as “basal cell carcinoma persisted”. In data set [2] (setting [17]), the “pain and soreness reported by the patient” value (“pain and soreness reported” for short) is recorded as 0 /10; the “reduction in number of actinic keratoses” value is on record as “No reduction in a number of actinic keratoses”. In data set [2] (after 4 weeks of treatment), the “discomfort reported by the patient” value is “no discomfort” and the redness or inflammation result is given as “no redness or inflammation detected”. Also, the “inhibitory activity against ATR” value in data set [3] is “triple inhibitory activity (against ATM, ATR and PARP)”. In addition, in data set [4], the solubility entry was “limited solubility”. In addition, the “AK lesion clearance / efficacy versus 5FU alone control” value in data set [5] is recorded as “significantly improved AK lesion clearance”. The “pain and soreness reported” value in [6] (setting [17]) is on record as 0 /10. In addition, the “reduction in number of actinic keratoses” value in [6] (1 week after completion of 4 weeks treatment) is listed as “No reduction in a number of actinic keratoses”. In [6] (after 4 weeks of treatment), the “discomfort reported by the patient” value was “no discomfort” and the redness or inflammation entry was “no redness or inflammation detected”. Moreover, in data set [7], the “inhibitory activity against PARP” value is “triple inhibitory activity (against ATM, ATR and PARP)”. In data set [8], the “basal cell carcinoma outcome” value is reported as “basal cell carcinoma persisted”, the “change in lesion appearance” value is on record as “no change in the lesion appearance” and the inflammation or pain entry was “No evidence of inflammation or pain”. Besides, in data set [9], the “inhibitory activity against ATM” value is “triple inhibitory activity (against ATM, ATR and PARP)”.
As to `Cn1c(=O)c2c(ncn2C)n(C)c1=O` [caffeine], the “AK lesion clearance / efficacy versus 5FU alone control” value in data set [5] was “decreased efficacy”. In data set [5] (0.5% w/v methylxanthine with 5FU versus 5FU alone baseline), the “trend in efficacy per patient” value is “neither caffeine not theophylline showed any positive trends”.
As to `CC(C)Cn1cnc2c(N)nc3ccccc3c21` [imiquimod], the “patients with painful, severe inflammatory reaction” value in data set [10] is given as 20-50%. In data set [11], the “efficacy for actinic keratoses” value is 50-60%. In addition, the “efficacy for basal cell carcinomas” value in [12] was 70-80%.
Consider `O=c1[nH]cc(F)c(=O)[nH]1` [5-FU, 5-fluorouracil], for which the “patients with painful, severe inflammatory reaction” value in [10] was 20-50%. In addition, in data set [13], the “basal cell carcinoma lesion outcome” value is listed as “persisted”. Also, the “inhibition of thymidylate synthase” value in data set [14] is “inhibitor of thymidylate synthase”. The “inflammation and scaliness of treated area” value in data set [15] (a week following cessation of treatment) is “significant inflammation and scaly appearance”. The “pain and soreness reported” value in data set [15] (after 30 days of once daily treatment, 5% 5-FU cream with or without 0.5% theobromine solution) is reported as 9 /10; in data set [16] (after 4 weeks, 4x per week, 5% 5-FU cream with or without 0.5% theobromine solution) it was 2 /10. For the same molecule, the “redness, soreness and inflammation assessed by physician” value in data set [15] (after 30 days of treatment) and in data set [16] (after 4 weeks of treatment) was “became inflamed” in each case. Moreover, the “discomfort reported by the patient” value in data set [15] (during 30 days of treatment) is listed as “significant discomfort”; in data set [16] (during 4 weeks of treatment), “mild discomfort”. Moreover, the “clearance of the actinic keratosis lesion” value in data set [15] (setting [18]) is “incomplete clearance”. The “pain reported by the patient” value in [15] (setting [18]) and in [16] (setting [18]) was “no pain reported by the patient” throughout. Also, the residual inflammatory reaction entry in data set [15] (setting [18]) and in [16] (setting [18]) was “no visible residual inflammatory reaction” each time. In [15] (four weeks after completion of treatment, ImageJ image analysis), the “reduction in size of actinic keratosis lesion” value was “over 30%”. The “efficacy for actinic keratoses” value in data set [11] was 50-60%. For the same molecule, in data set [12], the “efficacy for basal cell carcinomas” value is 60-70%. In addition, the “clearance of the actinic keratosis lesions” value in data set [16] (setting [18]) is “incomplete clearance”. Also, the “actinic keratosis lesion count after treatment” value in data set [16] (four weeks after completion, starting count 15 (5-FU alone), 16 (combination)) was 14 lesions.
